Measured values reported in PubChem BioAssay AID248 (DTP/NCI, 2004).
“And” between values parts separate entries of the source, which are not always exact repeats. Equal entries are not always repeated. Inconclusive results and toxic doses are left out. No stated cut-off is given here; in the data, active means T/C of 150% or more; inactive means T/C below 125%.

System: L1210 leukemia ip in BDF1 mice, survival T/C
Assay: NCI In Vivo Anticancer Drug Screen. Data for tumor model L1210 Leukemia (intraperitoneal) in B6D2F1 (BDF1) mice
Settings: endpoint: mean survival time, higher = longer survival
In short: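 Mice bearing the transplanted tumor received compound or vehicle. Survival of the treated group was divided by that of the vehicle-treated control group to give the ratio.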

[1] = dose: 100.0 mg/kg/injection, schedule: Q01DX001 (ip), vehicle: saline
[2] = dose: 200.0 mg/kg/injection, schedule: Q01DX001 (ip), vehicle: saline
[3] = dose: 100.0 mg/kg/injection, schedule: Q04DX003 (ip), vehicle: saline with Tween-80
[4] = dose: 100.0 mg/kg/injection, schedule: Q04DX003 (ip), vehicle: Klucel (hydroxypropylcellulose) (HPC)
[5] = dose: 100.0 mg/kg/injection, schedule: Q04DX002 (ip), vehicle: saline with Tween-80
[6] = dose: 400.0 mg/kg/injection, schedule: Q04DX002 (ip), vehicle: saline with Tween-80
[7] = dose: 100.0 mg/kg/injection, schedule: Q04DX003 (ip), vehicle: saline
[8] = dose: 200.0 mg/kg/injection, schedule: Q04DX003 (ip), vehicle: saline
[9] = dose: 50.0 mg/kg/injection, schedule: Q01DX009 (ip), vehicle: saline with Tween-80
[10] = dose: 200.0 mg/kg/injection, schedule: Q04DX003 (ip), vehicle: Klucel (hydroxypropylcellulose) (HPC)
[11] = dose: 400.0 mg/kg/injection, schedule: Q04DX003 (ip), vehicle: Klucel (hydroxypropylcellulose) (HPC)

Measured: T/C

C[N+](C)(C)c1ncnc2c1ncn2C1CC(O)C(CO)O1 (stereo not given)
inactive: dose: 50.0 mg/kg/injection, schedule: Q01DX001 (ip), vehicle: saline 104 % of control | [1] 96 % of control | [2] 102 % of control

NC(=O)C(c1ccccc1)c1ccccc1
inactive: [3] 93 % of control | dose: 200.0 mg/kg/injection, schedule: Q04DX003 (ip), vehicle: saline with Tween-80 100 % of control | dose: 400.0 mg/kg/injection, schedule: Q04DX003 (ip), vehicle: saline with Tween-80 94 % of control

O=C(CCN1CC1)OCCc1ccccc1
inactive: dose: 20.0 mg/kg/injection, schedule: Q04DX003 (ip), vehicle: Klucel (hydroxypropylcellulose) (HPC) 98 % of control | dose: 25.0 mg/kg/injection, schedule: Q01DX009 (ip), vehicle: Klucel (hydroxypropylcellulose) (HPC) 111 % of control | dose: 40.0 mg/kg/injection, schedule: Q04DX003 (ip), vehicle: Klucel (hydroxypropylcellulose) (HPC) 95 % of control | dose: 50.0 mg/kg/injection, schedule: Q01DX009 (ip), vehicle: Klucel (hydroxypropylcellulose) (HPC) 97 % of control | dose: 80.0 mg/kg/injection, schedule: Q04DX003 (ip), vehicle: Klucel (hydroxypropylcellulose) (HPC) 101 % of control | [4] 98 % of control

NC(=O)c1c(/N=C/c2cc(Br)ccc2O)sc2c1CCCC2
inactive: dose: 25.0 mg/kg/injection, schedule: Q04DX002 (ip), vehicle: saline with Tween-80 87 % of control | dose: 50.0 mg/kg/injection, schedule: Q04DX002 (ip), vehicle: saline with Tween-80 87 % of control | [5] 93 % of control | [6] 87 % of control

CCOC(CN=CN(C)C)OCC
inactive: [7] 94 % of control | [8] 105 % of control | dose: 400.0 mg/kg/injection, schedule: Q04DX003 (ip), vehicle: saline 97 % of control

O=C1OC(=O)C2C3C=CC(O3)C12 (stereo not given)
inactive: dose: 6.25 mg/kg/injection, schedule: Q01DX009 (ip), vehicle: saline 97 % of control | dose: 10.0 mg/kg/injection, schedule: Q04DX003 (ip), vehicle: saline with Tween-80 96 % of control | dose: 12.5 mg/kg/injection, schedule: Q01DX009 (ip), vehicle: saline with Tween-80 111 % of control | dose: 12.5 mg/kg/injection, schedule: Q01DX009 (ip), vehicle: saline 96 % of control | dose: 20.0 mg/kg/injection, schedule: Q04DX003 (ip), vehicle: saline with Tween-80 100 % of control | dose: 25.0 mg/kg/injection, schedule: Q01DX009 (ip), vehicle: saline with Tween-80 108 % of control | dose: 25.0 mg/kg/injection, schedule: Q01DX009 (ip), vehicle: saline 95 % of control | dose: 40.0 mg/kg/injection, schedule: Q04DX003 (ip), vehicle: saline with Tween-80 94 % of control | [9] 95 % of control

COC1c2c(nc3ccccc3c2C(=O)O)-c2ccccc2C1(C)C (stereo not given)
inactive: [4] 104 % of control | [10] 104 % of control | [11] 106 % of control

CCCC(=O)Nc1cc([N+](=O)[O-])ccc1O
inactive: [9] 97 % of control and 106 % of control | [5] 93 % of control and 95 % of control | dose: 200.0 mg/kg/injection, schedule: Q04DX002 (ip), vehicle: saline with Tween-80 95 % of control and 97 % of control | [6] 95 % of control and 92 % of control

Cc1ccccc1N=Nc1c(O)n(-c2ccccc2C)c(=S)n(-c2ccccc2)c1=O
inactive: dose: 75.0 mg/kg/injection, schedule: Q01DX003 (ip), vehicle: Klucel (hydroxypropylcellulose) (HPC) 88 % of control | dose: 150.0 mg/kg/injection, schedule: Q01DX003 (ip), vehicle: Klucel (hydroxypropylcellulose) (HPC) 104 % of control | dose: 300.0 mg/kg/injection, schedule: Q01DX003 (ip), vehicle: Klucel (hydroxypropylcellulose) (HPC) 86 % of control

c1cnc2c(c1)Oc1cccnc1N2
inactive: dose: 50.0 mg/kg/injection, schedule: Q01DX001 (ip), vehicle: Klucel (hydroxypropylcellulose) (HPC) 98 % of control | dose: 100.0 mg/kg/injection, schedule: Q01DX001 (ip), vehicle: Klucel (hydroxypropylcellulose) (HPC) 92 % of control | dose: 200.0 mg/kg/injection, schedule: Q01DX001 (ip), vehicle: Klucel (hydroxypropylcellulose) (HPC) 90 % of control

ON=C1CSCSC1
inactive: dose: 12.5 mg/kg/injection, schedule: Q04DX002 (ip), vehicle: saline 91 % of control | dose: 25.0 mg/kg/injection, schedule: Q04DX002 (ip), vehicle: saline 94 % of control | dose: 50.0 mg/kg/injection, schedule: Q04DX002 (ip), vehicle: saline 88 % of control

Nc1ccc(N)c(C(=O)O)c1
inactive: dose: 75.0 mg/kg/injection, schedule: Q01DX001 (ip), vehicle: other 98 % of control | dose: 150.0 mg/kg/injection, schedule: Q01DX001 (ip), vehicle: other 93 % of control

CN=C(C)c1ccc(N(C)C)cc1
inactive: [4] 101 % of control | [10] 92 % of control | [11] 97 % of control

CN(C)c1ccc(P(c2ccc(N(C)C)cc2)c2ccc(N(C)C)cc2)cc1
inactive: dose: 100.0 mg/kg/injection, schedule: Q01DX009 (ip), vehicle: Klucel (hydroxypropylcellulose) (HPC) 91 % of control | [4] 95 % of control | dose: 200.0 mg/kg/injection, schedule: Q01DX009 (ip), vehicle: Klucel (hydroxypropylcellulose) (HPC) 91 % of control | [10] 95 % of control | dose: 400.0 mg/kg/injection, schedule: Q01DX009 (ip), vehicle: Klucel (hydroxypropylcellulose) (HPC) 87 % of control | [11] 95 % of control

CC(=O)Nc1cccc([As](=O)(c2cccc(NC(C)=O)c2)c2cccc(NC(C)=O)c2)c1
inactive: dose: 55.0 mg/kg/injection, schedule: Q01DX Z (ip), vehicle: methylcellulose (MC) 98 % of control | dose: 125.0 mg/kg/injection, schedule: Q01DX Z (ip), vehicle: methylcellulose (MC) 98 % of control

CCN(CC)CC(=O)NCC(CC)(CCN1CCOCC1)c1cccc2ccccc12 (stereo not given)
inactive: [7] 97 % of control | [8] 95 % of control

COc1ccc2c(c1)C(=O)CC(C)N2S(=O)(=O)c1ccc(C)cc1 (stereo not given)
inactive: dose: 18.75 mg/kg/injection, schedule: Q04DX002 (ip), vehicle: Klucel (hydroxypropylcellulose) (HPC) 95 % of control | dose: 37.5 mg/kg/injection, schedule: Q04DX002 (ip), vehicle: Klucel (hydroxypropylcellulose) (HPC) 113 % of control | dose: 75.0 mg/kg/injection, schedule: Q04DX002 (ip), vehicle: Klucel (hydroxypropylcellulose) (HPC) 103 % of control | dose: 150.0 mg/kg/injection, schedule: Q04DX002 (ip), vehicle: Klucel (hydroxypropylcellulose) (HPC) 98 % of control and 103 % of control | dose: 300.0 mg/kg/injection, schedule: Q04DX002 (ip), vehicle: Klucel (hydroxypropylcellulose) (HPC) 87 % of control

O=S(=O)(CS(=O)(=O)Nc1ccccc1)Nc1ccccc1
inactive: dose: 25.0 mg/kg/injection, schedule: Q04DX003 (ip), vehicle: saline with Tween-80 113 % of control | dose: 50.0 mg/kg/injection, schedule: Q04DX003 (ip), vehicle: saline with Tween-80 116 % of control | [1] 94 % of control | [3] 111 % of control | [2] 94 % of control | dose: 400.0 mg/kg/injection, schedule: Q01DX001 (ip), vehicle: saline 94 % of control
